Results as given in US6841718B2 (priority 2000, dated 2005).

Test system: bacteria, yeast, algal and fungal spores, and invertebrate larvae
Test: attachment of organisms

SMILES: O=C(O)C=Cc1ccc(OS(=O)(=O)O)cc1 [Zosteric acid, para-(sulphooxy) cinnamic acid]
- attachment of a wide range of organisms: inhibits attachment
